Assay results as given in patent publication EP1184374A1, “Carboxamide derivatives of pyrrolidine, piperidine and hexahydroazepine for the treatment of thrombosis disorders” (ORTHO PHARMACEUTICAL CORPORATION, priority 1996, dated 1997).

Key:
GPIIb/IIIa = GPIIb/IIIa (Homo sapiens, UniProt P05106+P08514); assay: In vitro solid phase purified glycoprotein IIb/IIIa binding assay (biotinylated fibrinogen binding); conditions: for inhibition at 50 µM: read-out: Fibrinogen Binding % Inh. (50 µM)
Experimental: IN VITRO SOLID PHASE PURIFIED GLYCOPROTEIN IIB/IIIA BINDING ASSAY.
The plate is covered and incubated overnight at 4°C. The GPIIb/IIa solution is discarded and 150 µl of 5% BSA is added and incubated at RT for 1-3 h. The plate is washed extensively with modified Tyrodes buffer. Biotinylated fibrinogen (25 µl/well) at 2 x final concentration is added to the wells that contain the test compounds (25 µl/well). The plate is covered and incubated at RT for 2-4 h. Twenty minutes prior to incubation completion, one drop of Reagent A (Vecta Stain ABC Horse Radish Peroxidase kit, Vector Laboratories, Inc.) and one drop Reagent B are added with mixing to 5 mL modified Tyrodes buffer mix and let stand. The ligand solution is discarded and the plate washed (5 x 200 µl/well) with modified Tyrodes buffer. Vecta Stain HRP-Biotin-Avidin reagent (50 µl/well, as prepared above) is added and incubated at RT for 15 min. The Vecta Stain solution is discarded and the wells washed (5 x 200 µl/well) with modified Tyrodes buffer. Developing buffer (10 mL of 50 mM citrate/phosphate buffer @ pH 5.3, 6 mg o-phenylenediamine, 6 µl 30% H2O2; 50 µl/well) is added and incubated at RT for 3-5 min, and then 2N H2SO4 (50 µl/well) is added. The absorbance is read at 490 nm.

gel-filtered platelets = assay: In vitro inhibition of thrombin-induced gel-filtered platelet aggregation; assay type: cell-based; conditions: Homo sapiens; for inhibition at 50 µM: read-out: Platelet Aggregation % Inh. (50µM)
Experimental: IN VITRO INHIBITION OF THROMBIN-INDUCED GEL-FILTERED PLATELET AGGREGATION ASSAY.
The percentage of platelet aggregation is calculated as an increase in light transmission of compound-treated platelet concentrate vs. control-treated platelet concentrate. Human blood is obtained from drug free, normal donors into tubes containing 0.13M sodium citrate. Platelet rich plasma (PRP) is collected by centrifugation of whole blood at 200 x g for 10 min at 25°C. The PRP (5 mL) is gel filtered through Sepharose 2B (bed volume 50 mL), and the platelet count is adjusted to 2x10^7 platelets per sample. The following constituents are added to a siliconized cuvette: concentrated platelet filtrate and Tyrode's buffer (0.14M NaCl, 0.0027MKCl, 0.012M NaHCO3, 0.76 mM Na2HPO4, 0.0055M glucose, 2 mg/mL BSA and 5.0mM HEPES @ pH 7.4) in an amount equal to 350 µl, 50 µl of 20 mM calcium and 50 µl of the test compound. Aggregation is monitored in a BIODATA aggregometer for the 3 min following the addition of agonist (thrombin 50 µl of 1 unit/mL).

Sequence of GPIIb/IIIa (P08514 32-887 limits assumed): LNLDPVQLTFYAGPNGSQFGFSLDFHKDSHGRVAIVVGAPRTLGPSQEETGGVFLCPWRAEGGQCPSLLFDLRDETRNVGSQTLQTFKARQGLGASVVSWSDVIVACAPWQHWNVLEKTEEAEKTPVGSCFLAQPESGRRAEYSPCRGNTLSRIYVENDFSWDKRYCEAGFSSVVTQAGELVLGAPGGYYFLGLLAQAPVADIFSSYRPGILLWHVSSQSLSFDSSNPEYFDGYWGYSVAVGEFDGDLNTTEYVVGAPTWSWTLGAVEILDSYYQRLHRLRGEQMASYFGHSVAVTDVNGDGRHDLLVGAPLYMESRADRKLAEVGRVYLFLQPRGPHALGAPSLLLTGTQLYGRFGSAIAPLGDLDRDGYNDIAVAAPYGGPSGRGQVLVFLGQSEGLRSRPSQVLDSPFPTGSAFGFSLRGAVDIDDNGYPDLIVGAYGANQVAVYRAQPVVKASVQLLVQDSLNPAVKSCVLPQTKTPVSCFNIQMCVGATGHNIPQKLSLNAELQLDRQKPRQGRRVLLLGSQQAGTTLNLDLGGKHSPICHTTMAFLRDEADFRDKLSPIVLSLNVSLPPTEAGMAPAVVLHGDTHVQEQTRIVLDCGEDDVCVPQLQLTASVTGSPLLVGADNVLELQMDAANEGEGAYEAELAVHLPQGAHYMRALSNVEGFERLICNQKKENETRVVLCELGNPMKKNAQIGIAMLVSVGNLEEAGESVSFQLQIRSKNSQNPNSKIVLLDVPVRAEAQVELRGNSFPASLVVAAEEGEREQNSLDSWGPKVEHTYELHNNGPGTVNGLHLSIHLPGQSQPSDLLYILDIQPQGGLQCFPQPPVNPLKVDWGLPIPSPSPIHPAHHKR
Sequence of GPIIb/IIIa (P08514 891-1039 partner limits assumed): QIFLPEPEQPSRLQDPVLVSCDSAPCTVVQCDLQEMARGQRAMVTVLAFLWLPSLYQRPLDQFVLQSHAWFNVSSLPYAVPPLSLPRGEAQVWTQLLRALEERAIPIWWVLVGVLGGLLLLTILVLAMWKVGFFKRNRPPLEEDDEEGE
Sequence of GPIIb/IIIa (P05106 27-788): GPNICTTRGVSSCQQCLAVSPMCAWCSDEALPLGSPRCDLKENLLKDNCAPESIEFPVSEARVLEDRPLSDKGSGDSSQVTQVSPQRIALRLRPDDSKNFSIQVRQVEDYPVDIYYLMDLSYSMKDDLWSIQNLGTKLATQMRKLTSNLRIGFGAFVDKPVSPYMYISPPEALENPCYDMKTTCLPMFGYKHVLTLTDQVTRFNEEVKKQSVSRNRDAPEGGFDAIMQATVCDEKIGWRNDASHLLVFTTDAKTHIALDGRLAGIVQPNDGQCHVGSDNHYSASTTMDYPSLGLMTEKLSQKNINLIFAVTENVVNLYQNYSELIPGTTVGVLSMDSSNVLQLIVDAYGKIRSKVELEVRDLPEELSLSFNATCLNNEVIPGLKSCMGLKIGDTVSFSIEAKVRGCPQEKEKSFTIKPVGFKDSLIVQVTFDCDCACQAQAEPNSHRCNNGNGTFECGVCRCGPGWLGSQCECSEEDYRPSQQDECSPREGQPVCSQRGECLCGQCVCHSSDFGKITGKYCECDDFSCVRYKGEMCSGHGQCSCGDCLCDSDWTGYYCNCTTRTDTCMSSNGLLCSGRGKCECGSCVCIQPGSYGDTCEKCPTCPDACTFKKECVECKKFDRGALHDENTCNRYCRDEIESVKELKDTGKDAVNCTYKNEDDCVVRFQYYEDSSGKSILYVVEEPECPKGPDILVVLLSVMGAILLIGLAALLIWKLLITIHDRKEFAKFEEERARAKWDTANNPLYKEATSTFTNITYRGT

| Compound | inhibition at 50 µM (GPIIb/IIIa) | IC50 (gel-filtered platelets) | IC50 (GPIIb/IIIa) | inhibition at 50 µM (gel-filtered platelets) |
| --- | --- | --- | --- | --- |
| O=C(O)C(O)CNC(=O)[C@@H]1CCCN(C(=O)CCC2CCNCC2)C1 (single isomer, unassigned) [Compound 11, N-3-(4-Piperidinepropionyl)-R-(-)-nipecotyl-(3-amino-2-hydroxy) propionic acid] | 79.6% | 1550 nM | – | 99.2% |
| O=C(O)CC(NC(=O)C1CCCN(C(=O)CCC2CCNCC2)C1)c1ccccc1 (stereo not drawn) [Compound 1, N-3-(4-Piperidinepropionyl)-nipecotyl-(3-amino-3-phenyl) propionic acid] | 95% | 3600 nM | 3 nM | 83% |
| CC(CNC(=O)C1CCCN(C(=O)NCC2CCNCC2)C1)C(=O)O (stereo not drawn) [Compound 2, N-(4-Piperidinemethylaminocarbonyl)-nipecotyl-(3-amino-2-methyl) propionic acid] | 93% | 54000 nM | 27 nM | 95.7% |
| COC(=O)[C@@H](CC(=O)O)NC(=O)C1CCCN(C(=O)OCC2CCNCC2)C1 (stereo partly drawn) [Compound 3, N-(4-Piperidinemethyloxycarbonyl)-nipecotyl-D-aspartic acid α-methyl ester] | 81% | > 100000 nM | – | 26.2% |
| Cc1ccc(C(CC(=O)O)NC(=O)C2CCN(C(=O)CCC3CCNCC3)C2)cc1 (stereo not drawn) [Compound 4, N-3-(4-Piperidinepropionyl)-pyrrolidine-3-carboxy-[3-amino-3-(4-tolyl)]propionic acid] | 89.9% | 26000 nM | 121 nM | 81% |
| O=C(O)CC(NC(=O)C1CCN(C(=O)CCC2CCNCC2)CC1)c1ccc(C(=O)O)cc1 (stereo not drawn) [Compound 6] | 90.7% | 73000 nM | 197 nM | 71.2% |
| CN1CCC(CCC(=O)N2CCCC(C(=O)NCCC(=O)O)C2)CC1 (stereo not drawn) [Compound 7, N-3-(4-N-Methyl-piperidinepropionyl)-nipecotyl-3-aminopropionic acid] | 100% | 2400 nM | 6 nM | 75.6% |
| O=C(O)C1CN(C(=O)C2CCCN(C(=O)CCC3CCNCC3)C2)CCC1=O (stereo not drawn) [Compound 8, N-3-(4-Piperidinepropionyl)-nipecotyl-4-oxonipecotic acid] | 93% | – | 332 nM | – |
| C[Si](C)(C)C#CC(CC(=O)O)NC(=O)C1CCCN(C(=O)CCC2CCNCC2)C1 (stereo not drawn) [Compound 9, N-3-(4-Piperidinepropionyl)-nipecotyl-[3-amino-3-(2-trimethylsilylethynyl)]propionic acid] | 99% | 370 nM | 2 nM | 90.9% |
| NCCCCCC(=O)N1CCCC(C(=O)NC(CC(=O)O)c2cccnc2)C1 (stereo not drawn) [Compound 10, N-(6-Aminocaproyl)-nipecotyl-3-amino-3-(3-pyridyl)propionic acid] | 91.3% | 1600 nM | – | 85% |
| O=C(O)CCNC(=O)C1CCCN(S(=O)(=O)CCC2CCNCC2)C1 (stereo not drawn) [Compound 12, N-3-(4-Piperidineethanesulfonyl)-nipecotyl-3-aminopropionic acid] | 97% | 15500 nM | 25 nM | 88% |
| O=C(NCCc1nnn[nH]1)C1CCCN(C(=O)CCC2CCNCC2)C1 (stereo not drawn) [Compound 13, N-3-(4-Piperidinepropionyl)-nipecotyl-5H-(2-aminoethyl)tetrazole] | 95% | 25500 nM | 1390 nM | 67% |
| O=C(O)C[C@H](NC(=O)C1CCCN(CCCC2CCNCC2)C1)c1ccc2c(c1)OCO2 (stereo partly drawn) [Compound 20, N-3-(4-Piperidinepropyl)-nipecotyl-[(S)-3-amino-3-(3,4-methylenedioxyphenyl)]propionic acid] | 99% | 37000 nM | – | 89.7% |

Further lines, with some results ahead:

| inhibition at 50 µM (GPIIb/IIIa) | IC50 (gel-filtered platelets) | IC50 (GPIIb/IIIa) | Compound | inhibition at 50 µM (gel-filtered platelets) |
| --- | --- | --- | --- | --- |
| 89% | 10000 nM | 12 nM | CC(CC(=O)O)NC(=O)C1CCN(C(=O)CCC2CCNCC2)CC1 (stereo not drawn) [Compound 5, N-3-(4-Piperidinepropionyl)-isonipecotyl-(3-amino-3-methyl) propionic acid] | 100% |
| 99% | 910 nM | 4 nM | CN1CCN(CCC(=O)N2CCCC(C(=O)NC(CC(=O)O)c3ccc4c(c3)OCO4)C2)CC1 (stereo not drawn) [Compound 14, N-3-(4-N-Methyl-piperazinepropionyl)-nipecotyl-[3-amino-3-(3,4-methylenedioxyphenyl)]propionic acid] | 91% |
| 96% | 450 nM | 5 nM | O=C(O)CC(NC(=O)C1CCCCN(C(=O)CCC2CCNCC2)C1)c1cnc2ccccc2c1 (stereo not drawn) [Compound 17, N-3-(4-Piperidinepropionyl)-hexahydroazepine-3-carboxy-[3-amino-3-(3-quinolinyl)]propionic acid] | 89.6% |
| 100% | 42000 nM | – | O=C(NC[C@@H]1NC(=O)N(Cc2ccccc2)C1=O)[C@@H]1CCCN(C(=O)CCC2CCNCC2)C1 [Compound 29, N-3-(4-Piperidinepropionyl)-R-(-)nipecotyl-aminomethyl-5-(S)-(3-N-benzyl)imidazoline-2.4-dione] | 100% |
| 100% | 20 nM | – | O=C(O)C[C@H](NC(=O)[C@@H]1CCCN(C(=O)CCC2CCNCC2)C1)c1cncc(Br)c1 [Compound 32, N-3-(4-Piperidinepropionyl)-R-(-)nipecotyl-[(S)-3-amino-3-(5-bromo-3-pyridyl)] propionic acid] | – |
| 100% | 300 nM | – | N=CN1CCC(CCC(=O)N2CCCC(C(=O)NC(CC(=O)O)c3cccnc3)C2)CC1 [Compound 33, N-3-(4-Formamidinopiperidinepropionyl)-R-(-)nipecotyl-[(S)-3-amino-3-(3-pyridyl)] propionic acid] | 100% |
